Measurements as given in patent US20230272077A1, “PD-1 SIGNAL INHIBITOR COMBINATION THERAPY” (KYOTO UNIVERSITY, priority 2015, published 2023).
“Also recorded” adds a separate entry of the source.

Tests used:
tumor cells = assay: Phenotypic and transcription profile analysis of tumor cells from mice treated with reagent alone; set-up: species or system mouse; details: tumor cells from mice treated with reagent alone in vivo
Text: FIG. 12. […] After enzymatic digestion, tumor cells were sorted with a cell isolation kit capable of excluding non-tumor cells. The isolated tumor cells were further purified with Aria and used in the following experiments. b) Tumor cells were stained with antibodies targeting PD-L1, MHC class I, CD155 (ligand of TIGIT), and VISTA or with dyes for mitochondrial mass, membrane potential, and superoxide. c) Expression levels of genes associated with mitochondrial energy metabolism and apoptosis were examined using RT^2 profiler PCR Kit.
For analyzing draining lymph nodes, cells from axillary, brachial, and inguinal lymph nodes on the right side of tumor-inoculated mice were harvested and mixed. Averaged cell numbers per one lymph node were used as absolute cell numbers. For tumor analysis, tumor tissues were minced into 2- to 3-mm pieces with scissors and digested with collagenase type IV (Thermo Fisher Scientific) using a gentle MACS Dissociator (Miltenyi Biotec). The numbers of tumor cells per mg were used as absolute numbers. Tumor cells were isolated from digested tumor tissues using a Tumor Cell Isolation Kit, mouse (Miltenyi Biotec). This kit purifies tumor cells by excluding lymphocytes, red blood cells, fibroblasts, endothelial cells and tumor-associated stromal cells. The resultant tumor cell population was further isolated/purified with FACS Aria (BD Biosciences). […]

[1] = tested on: AMPK and its associated proteins ACC and SIRT1; assay: Western blotting of DLN CD8+ T cells, AMPK pathway; assay type: in vivo, mouse; details: CD8+ T cells from mice treated with PD-L1 antibody and reagent
Method: FIG. 7. […] Phosphorylation of AMPK, ACC, mTOR and S6K and the expression of SIRT1 and 4EBP1 were analyzed by Western blotting. b) MC38-bearing mice were treated with PD-L1 antibody in combination with AMPK activator (A769662) and/or mTOR activator (MHY1485) according to the same schedule as shown in FIG. 3b.
CD8^+ T cells were isolated using mouse CD8 Microbeads (Miltenyi Biotec). After washing with PBS twice, 2×10^6 cells were solubilized in a lysis buffer containing 30 mM Tris-HCl (pH.7.4), 150 mM NaCl, 10% glycerol, 0.1% SDS, 1% Triton-X-100, 0.05% Na-Doc, 5 mM EDTA (pH.8.0), protease inhibitor mixture (Roche Molecular Biochemicals) and phosphatase inhibitors (Nacalai Tesque). After measurement of protein concentrations by DC protein assay (Bio-Rad), 4 μg of proteins was mounted on 4 to 20% gradient Mini-PROTEAN TGX Gels (Bio-Rad) and electroblotted onto nitrocellulose membranes, which were then incubated in a blocking buffer of TBS containing 1% BSA. Primary antibody incubations were carried out overnight at 4° C. in blocking buffer. After washing, secondary antibody incubations were carried out at room temperature for 40 min in blocking buffer. Blots were developed with enhanced chemiluminescence (Amersham Pharmacia). […]

MC38 = assay: Mouse therapy model, MC38-bearing mice (tumor volume, survival); assay type: in vivo
Method: MC38 (5×10^5) and MethA (5×10^5) cells were intradermally injected on the right flank. MC38 was inoculated into C57BL/6 mice and MethA was inoculated into BALB/c mice. For monotherapy, mice were intraperitoneally injected with 150 μg of PD-L1 mouse antibody (1-111A) (prepared by the laboratory of the present inventors) 5 days after the tumor inoculation. Therapy with PD-L1 antibody alone was repeated three times every 5 days. For combination therapy, administration of PD-L1 antibody and chemical agents started 7 days after tumor injection. Chemical agents were injected at a regular interval of 2 days and PD-L1 antibody at a regular interval of 5 days (shown in FIG. 3b). Tumors were measured on every alternate day, and tumor volumes were calculated using the formula for typical ellipsoid, π×(length×breadth×height/6).
The following chemical reagents were used at the indicated concentrations for combination therapy. AMPK activator: A769662, 6 mg/kg (Abcam); mTOR activator: MHY1485, 3 μg/kg (Sigma-Aldrich); uncoupler: carbonylcyanide-p-trifluoromethoxyphenylhydrazone (FCCP), 1.2 mg/kg (Abcam); uncoupler: 2,4-Dinitrophenol (DNP), 1.7 mg/kg (Aldrich); SIRT1 activator: resveratrol, 0.5 mg/kg (Abcam); ROS scavenger: Mn (III) tetrakis (4-benzoic acid) porphyrin (MnTBAP), 1.25 mg/kg (Calbiochem); ROS generator: tert-butyl hydroperoxide solution (Luperox TBH70X), 200 μL/kg (Sigma-Aldrich); ATP synthase inhibitor: oligomycin, 250 μg/kg (Sigma-Aldrich); paraquat 2 mg/kg (Nakalai Tesque); oltipraz 1.9 mg/kg (Sigma); bezafibrate 1 mg/kg (ChemCruz).
All reagents were freshly prepared just before use. Each reagent was dissolved in the solvent indicated in the instructions. Note that the AMPK activator, mTOR activator, uncouplers and SIRT1 activator were prepared from fresh unused vials in each series of experiments. Dissolved reagents were diluted in PBS, and a 200 l aliquot was injected per mouse.
Murine colon adenocarcinoma MC38 cells (5×10^5) were inoculated into C57BL/6 mice. After 7 days, anti-PD-L1 antibody (1-111A, 150 μg) and AMPK inhibitor (Compound C: 200 μg in BBS, 200 μL) were administered intraperitoneally. Anti-PD-L1 antibody was administered 3 times at a regular interval of 6 days; Compound C (C.C) was administered 7 times at a regular interval 2 days.
MC38 cells (5×10^5) were inoculated into C57BL/6 mice. After 7 days, anti-PD-L1 antibody (1-111A, 150 μg) and PGC-1α/transcription factor complex activator (2-(4-{2-[(4-chlorobenzoyl)amino]ethyl}phenoxy)-2-methylpropanoic acid (bezafibrate): 10 ug in PBS, 200 ul) were administered intraperitoneally. Anti-PD-L1 antibody was administered 3 times at a regular interval of 6 days; bezafibrate was administered 7 times at a regular interval 2 days.

PGC-1α = PGC-1α expression (Western blotting, real-time RT-PCR); assay type: in vivo, mouse; details: combination therapy together with PD-L1 antibody
Method: RNA was isolated from CD8^+ T cells or tumor cells with the RNeasy Mini Kit (Qiagen), followed by cDNA synthesis by reverse transcription. Real-time PCR for PGC-1α was performed using the following primers: Forward […] (SEQ ID NO: 1) and Reverse […] (SEQ ID NO: 2). To analyze the expression levels of genes associated with apoptosis and mitochondrial energy metabolism, RT2 Profiler PCR Array Gene Expression Kit PAMM-012Z or PAMM-008Z (Qiagen) was used. The list of genes included in this assay can be found in www.sabiosciences.com/Apoptosis.php.
CD8^+ T cells were isolated using mouse CD8 Microbeads (Miltenyi Biotec). After washing with PBS twice, 2×10^6 cells were solubilized in a lysis buffer containing 30 mM Tris-HCl (pH.7.4), 150 mM NaCl, 10% glycerol, 0.1% SDS, 1% Triton-X-100, 0.05% Na-Doc, 5 mM EDTA (pH.8.0), protease inhibitor mixture (Roche Molecular Biochemicals) and phosphatase inhibitors (Nacalai Tesque). After measurement of protein concentrations by DC protein assay (Bio-Rad), 4 μg of proteins was mounted on 4 to 20% gradient Mini-PROTEAN TGX Gels (Bio-Rad) and electroblotted onto nitrocellulose membranes, which were then incubated in a blocking buffer of TBS containing 1% BSA. Primary antibody incubations were carried out overnight at 4° C. in blocking buffer. After washing, secondary antibody incubations were carried out at room temperature for 40 min in blocking buffer. Blots were developed with enhanced chemiluminescence (Amersham Pharmacia). Primary antibodies recognizing the following proteins were used: Phospho-mTOR (P-mTOR) (Cat #5536), Phospho-AMPKa (P-AMPK) (#2535), Phospho-p70 S6 Kinase (P-S6K) (#9205), 4E-BP1 (#9644), Phospho-Acetyl-CoA Carboxylase (P-ACC) (#3661) and SIRT1 (#9475). All the primary antibodies were obtained from Cell Signaling Technology. An antibody recognizing PGC-1α (SC-13067) was obtained from Santa Cruz.

Question: With N#CC(C#N)=NNc1ccc(OC(F)(F)F)cc1 [FCCP, carbonyl cyanide p-trifluoromethoxyphenylhydrazone] as the molecule, how does the “changes in immune-regulatory surface markers and transcriptional profiles of tumor cells” value (tumor cells) read?
Answer: did not show a significant difference; also recorded: little effect on tumor cells in vivo

Question: And the “activation of AMPK and its associated proteins ACC and SIRT1” value [1]?
Answer: activated

Question: What about the “antitumor effect when administered alone” value (MC38; MC38-bearing mice, reagent alone, no PD-L1 antibody, tumor volume) of the same molecule?
Answer: failed to exhibit any antitumor effect

Question: And the “enhancement of antitumor effect of PD-L1 antibody (tumor volume)” value (MC38; MC38-bearing mice, reagent combined with PD-L1 antibody vs PD-L1 antibody alone)?
Answer: augmented the efficacy of PD-L1 antibody therapy; also recorded: enhance the antitumor effect of PD-L1 antibody

Question: And the survival rate (MC38; mouse, in vivo)?
Answer: remarkably improved the survival rate

Question: What about the “expression levels of PGC-1α protein and mRNA” value (PGC-1α) of the same molecule?
Answer: increased
